Our source for the IC50 values is US20210101928A1 (Sage Therapeutics, Inc., priority 2017, published 2021).

This test deals with GABAA receptor ([35S]-TBPS binding, rat brain cortical membranes). Nature of the test: Steroid inhibition of [35S]-TBPS binding. Conditions: Table III-1 (biological data), 3 nM [35S]-TBPS, in the presence of 5 mM GABA, read-out: TBPS IC50. The gist of the method: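 Sprague-Dawley rat cortical P2 membranes incubated 90 min at room temperature with 3 nM [35S]-TBPS, […] GABA and test compound (0.5% DMSO) in 200 mM NaCl/50 mM Na-K phosphate pH 7.4. Nonspecific binding with […] TBPS; filtration and scintillation counting; IC50 and Imax from nonlinear fits.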

pIC50: −log10 of the molar value.

For the compound `CC[C@]12CC[C@H]3[C@@H](CC[C@@H]4C[C@@](O)(COC)CC[C@@H]43)[C@@H]1CC[C@@H]2C(C)=O` [III-B15, 1-((3R,5R,8R,9R,10S,13S,14S,17S)-13-ethyl-3-hydroxy-3-(methoxymethyl)hexadecahydro-1H-cyclopenta[a]phenanthren-17-yl)ethan-1-one], the pIC50 is 7.00 to 8.00.

Regarding `CC[C@]12CC[C@H]3[C@@H](CC[C@@H]4C[C@@](O)(COC)CC[C@@H]43)[C@@H]1CC[C@@H]2C(=O)Cn1cc(C#N)cn1` [III-B17, 1-(2-((3R,5R,8R,9R,10S,13S,14S,17S)-13-ethyl-3-hydroxy-3-(methoxymethyl)hexadecahydro-1H-cyclopenta[a]phenanthren-17-yl)-2-oxoethyl)-1H-pyrazole-4-carbonitrile], the negative logarithm of the IC50 (pIC50) is 7.00 to 8.00.

`COC[C@]12CC[C@H]3[C@@H](CC[C@@H]4C[C@](C)(O)CC[C@@H]43)[C@@H]1CC[C@@H]2C(C)=O` [III-C11, 1-((3R,5R,8R,9R,10S,13R,14S,17S)-3-hydroxy-13-(methoxymethyl)-3-methylhexadecahydro-1H-cyclopenta[a]phenanthren-17-yl)ethan-1-one]: the negative logarithm of the IC50 (pIC50) is 7.00 to 8.00.

As to `COC[C@]12CC[C@H]3[C@@H](CC[C@@H]4C[C@](C)(O)CC[C@@H]43)[C@@H]1CC[C@@H]2C(=O)Cn1cc(C#N)cn1` [III-C13, 1-(2-((3R,5R,8R,9R,10S,13R,14S,17S)-3-hydroxy-13-(methoxymethyl)-3-methylhexadecahydro-1H-cyclopenta[a]phenanthren-17-yl)-2-oxoethyl)-1H-pyrazole-4-carbonitrile], the pIC50 was greater than 8.00.

By pIC50 is commonly meant −log10 of the IC50, conventionally taken in molar units.
